# Values of other authors, collected in publication PMC9574858, “Linker-Dependent Folding Rationalizes PROTAC Cell Permeability” (Journal of Medicinal Chemistry, 2022).
# Biological target: CRBN (Homo sapiens, UniProt Q96SW2)
# Set-up: method as in PMID 29358579
# Chain of CRBN (Q96SW2 whole entry): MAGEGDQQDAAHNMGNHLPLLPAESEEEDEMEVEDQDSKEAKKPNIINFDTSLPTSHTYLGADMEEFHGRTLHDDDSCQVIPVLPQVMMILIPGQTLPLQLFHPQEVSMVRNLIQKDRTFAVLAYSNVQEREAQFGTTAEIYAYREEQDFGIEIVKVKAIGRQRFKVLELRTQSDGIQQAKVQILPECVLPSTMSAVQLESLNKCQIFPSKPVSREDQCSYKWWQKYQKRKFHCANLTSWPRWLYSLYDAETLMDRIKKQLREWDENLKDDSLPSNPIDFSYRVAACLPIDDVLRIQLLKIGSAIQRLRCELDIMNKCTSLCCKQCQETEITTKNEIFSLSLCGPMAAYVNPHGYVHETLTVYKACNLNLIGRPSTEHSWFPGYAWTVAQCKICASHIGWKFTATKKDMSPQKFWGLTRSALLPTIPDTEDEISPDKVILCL
smiles,measurement,value
"O=C1CC[C@H](N2C(=O)c3ccccc3C2=O)C(=O)N1 [S-form of thalidomide, thalidomide]",affinity for CRBN compared with the R-form,1 order of magnitude higher
